Active and inactive are the calls of the source.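 The calls were made as follows: active = compound leaving under 60% of the human M5 receptor calcium signal; inactive = the rest.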
Target: Muscarinic acetylcholine receptor M5 (Homo sapiens) (UniProt P08912)
Experiment: human M5 muscarinic receptor antagonists, cell-based, single concentration, CHO-K1 hM5, ACh EC80 (AID 743107)
Conditions: CHO-K1 hM5, calcium flux, at 10 µM, stronger effect = lower value

Muscarinic acetylcholine receptor M5 (Homo sapiens), sequence (P08912 whole entry, looked up): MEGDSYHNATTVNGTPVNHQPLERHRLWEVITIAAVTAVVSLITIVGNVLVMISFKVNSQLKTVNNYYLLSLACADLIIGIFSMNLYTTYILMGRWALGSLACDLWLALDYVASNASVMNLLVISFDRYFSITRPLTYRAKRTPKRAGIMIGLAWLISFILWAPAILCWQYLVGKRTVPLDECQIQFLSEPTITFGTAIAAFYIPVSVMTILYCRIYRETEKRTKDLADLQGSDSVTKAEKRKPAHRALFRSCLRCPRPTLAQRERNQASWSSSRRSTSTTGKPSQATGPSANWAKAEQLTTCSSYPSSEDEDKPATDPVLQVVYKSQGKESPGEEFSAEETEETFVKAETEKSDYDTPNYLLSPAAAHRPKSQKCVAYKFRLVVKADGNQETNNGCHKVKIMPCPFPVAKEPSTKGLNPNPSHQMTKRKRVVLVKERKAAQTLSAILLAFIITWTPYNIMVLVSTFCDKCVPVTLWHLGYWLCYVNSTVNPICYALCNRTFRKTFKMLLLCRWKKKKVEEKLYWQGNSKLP

| SMILES | activity remaining |
| --- | --- |
| COC(=O)c1cccc(OCc2cc(C(=O)N(C)C(C)c3ccccn3)no2)c1 (stereo not given) | 67.3% (inactive) |
| CC(O)c1cccc(OCc2cc(C(=O)N(C)C(C)c3ccccn3)no2)c1 (stereo not given) | 69.3% (inactive) |
| CC(=O)c1cccc(N(Cc2cc(C(=O)N(C)C(C)c3ccccn3)no2)C(=O)c2ccccc2)c1 (stereo not given) | 69.6% (inactive) |
| CC(=O)c1cccc(OCc2cc(C(=O)N3CCc4cccnc4C3)no2)c1 | 86.8% (inactive) |
| CC(=O)c1cccc(N(Cc2cc(C(=O)N(C)C(C)c3ccccn3)no2)C(C)=O)c1 (stereo not given) | 70.4% (inactive) |
| CC(c1ccccn1)N(C)C(=O)c1cc(COc2cccc(Oc3ccccc3)c2)on1 (stereo not given) | 83.1% (inactive) |
| CC(c1ccccn1)N(C)C(=O)c1cc(CNC(=O)C2CCCC2)on1 (stereo not given) | 77.7% (inactive) |
| COc1cccc(OCc2cc(C(=O)N(C)C(C)c3ccccn3)no2)c1 (stereo not given) | 79.8% (inactive) |
| CC(=O)c1cccc(OCc2cc(C(=O)NC(c3ccccn3)C(F)(F)F)no2)c1 (stereo not given) | 72.6% (inactive) |
| CC(c1ccccn1)N(C)C(=O)c1cc(COc2cccc(C(F)(F)F)c2)on1 (stereo not given) | 84.1% (inactive) |
| CC(=O)c1cccc(N(Cc2cc(C(=O)N(C)C(C)c3ccccn3)no2)C(=O)c2ccccc2F)c1 (stereo not given) | 74.8% (inactive) |
| CC(=O)c1cccc(OCc2cc(C(=O)N(C)c3ccccn3)no2)c1 | 77.8% (inactive) |
| Cc1ccc(OCc2cc(C(=O)N(C)C(C)c3ccccn3)no2)cc1 (stereo not given) | 78.5% (inactive) |
| CC(=O)c1ccccc1OCc1cc(C(=O)N(C)C(C)c2ccccn2)no1 (stereo not given) | 80.4% (inactive) |
| CC(=O)c1cccc(OCc2cc(C(=O)Nc3ccccn3)no2)c1 | 77.1% (inactive) |
| CC(=O)c1cccc(N(Cc2cc(C(=O)N(C)C(C)c3ccccn3)no2)C(=O)c2ccc(F)cc2)c1 (stereo not given) | 71.8% (inactive) |
| CC(c1ccccn1)N(C)C(=O)c1cc(COc2cccc(F)c2)on1 (stereo not given) | 77.1% (inactive) |
| CC(=O)c1cccc(OCc2cc(C(=O)N3CCc4ccccc4C3C)no2)c1 (stereo not given) | 81.5% (inactive) |
| Cc1ccc(C(=O)NCc2cc(C(=O)N(C)C(C)c3ccccn3)no2)cc1 (stereo not given) | 75.1% (inactive) |
| Cc1ccccc1OCc1cc(C(=O)N(C)C(C)c2ccccn2)no1 (stereo not given) | 79.9% (inactive) |

| SMILES | activity remaining |
| --- | --- |
| CC(=O)c1cccc(N(Cc2cc(C(=O)N(C)C(C)c3ccccn3)no2)C(=O)C(C)(C)C)c1 (stereo not given) | 73.9% (inactive) |
| CC(c1ccccn1)N(C)C(=O)c1cc(COc2ccc(F)cc2)on1 (stereo not given) | 82.2% (inactive) |
| COc1ccc(OCc2cc(C(=O)N(C)C(C)c3ccccn3)no2)cc1 (stereo not given) | 82.8% (inactive) |
| CC(c1ccccn1)N(C)C(=O)c1cc(COc2ccccc2Cl)on1 (stereo not given) | 77.2% (inactive) |
| CC(c1ccccn1)N(C)C(=O)c1cc(COc2ccc3c(c2)CCCC3)on1 (stereo not given) | 79% (inactive) |
| CC(=O)c1cccc(N(Cc2cc(C(=O)N(C)C(C)c3ccccn3)no2)C(=O)c2cccc(F)c2)c1 (stereo not given) | 70% (inactive) |
| CC(c1ccccn1)N(C)C(=O)c1cc(CNC(=O)c2ccc(F)cc2)on1 (stereo not given) | 77% (inactive) |
| CC(c1ccccn1)N(C)C(=O)c1cc(COc2cccc([N+](=O)[O-])c2)on1 (stereo not given) | 73.7% (inactive) |
| CC(c1ccccn1)N(C)C(=O)c1cc(COc2cccc(Br)c2)on1 (stereo not given) | 71.7% (inactive) |
| CC(=O)c1cccc(N(Cc2cc(C(=O)N(C)C(C)c3ccccn3)no2)C(=O)c2ccccc2C)c1 (stereo not given) | 67.2% (inactive) |
| CC(c1ccccn1)N(C)C(=O)c1cc(CNC(=O)c2ccccc2)on1 (stereo not given) | 76.7% (inactive) |
| CC(=O)c1cccc(OCc2cc(C(=O)NCc3ccccn3)no2)c1 | 88.7% (inactive) |
| CC(=O)c1cccc(NCc2cc(C(=O)N(C)C(C)c3ccccn3)no2)c1 (stereo not given) | 21.4% |
| CC(=O)c1cccc(OCc2cc(C(=O)N(C)C(C)c3cccnc3)no2)c1 (stereo not given) | 78.2% (inactive) |
| COc1ccccc1C(=O)N(Cc1cc(C(=O)N(C)C(C)c2ccccn2)no1)c1cccc(C(C)=O)c1 (stereo not given) | 73.8% (inactive) |
| CC(c1ccccn1)N(C)C(=O)c1cc(COc2ccc(Cl)cc2)on1 (stereo not given) | 84.2% (inactive) |
| CC(c1ccccn1)N(C)C(=O)c1cc(CNC(=O)c2cccc(F)c2)on1 (stereo not given) | 78.2% (inactive) |
| CC(=O)c1cccc(OCc2cc(C(=O)N(C)Cc3ccccc3)no2)c1 | 76.6% (inactive) |
| CC(=O)NCc1cc(C(=O)N(C)C(C)c2ccccn2)no1 (stereo not given) | 76.8% (inactive) |
| CC(c1ccccn1)N(C)C(=O)c1cc(COc2cccc(C=O)c2)on1 (stereo not given) | 83.1% (inactive) |

| SMILES | activity remaining |
| --- | --- |
| CC(=O)c1cccc(N(Cc2cc(C(=O)N(C)C(C)c3ccccn3)no2)C(=O)C2CCCC2)c1 (stereo not given) | 66% (inactive) |
| CC(c1ccccn1)N(C)C(=O)c1cc(COc2ccc(F)c(F)c2)on1 (stereo not given) | 85.3% (inactive) |
| CC(c1ccccn1)N(C)C(=O)c1cc(COc2cccc(CO)c2)on1 (stereo not given) | 75.5% (inactive) |
| CCOc1cccc(OCc2cc(C(=O)N(C)C(C)c3ccccn3)no2)c1 (stereo not given) | 79.2% (inactive) |
| CCN(C(=O)c1cc(COc2cccc(C(C)=O)c2)on1)C(C)c1ccccn1 (stereo not given) | 14.2% |
| CC(c1ccccn1)N(C)C(=O)c1cc(CNC(=O)C(C)(C)C)on1 (stereo not given) | 77.8% (inactive) |
| CC(=O)c1cccc(N(Cc2cc(C(=O)N(C)C(C)c3ccccn3)no2)C(=O)c2ccc(C)cc2)c1 (stereo not given) | 63.5% (inactive) |
| CC(Cl)c1cccc(OCc2cc(C(=O)N(C)C(C)c3ccccn3)no2)c1 (stereo not given) | 76.1% (inactive) |
| CC(=O)c1ccc(OCc2cc(C(=O)N(C)C(C)c3ccccn3)no2)cc1 (stereo not given) | 75% (inactive) |
| COc1ccccc1C(=O)NCc1cc(C(=O)N(C)C(C)c2ccccn2)no1 (stereo not given) | 76.4% (inactive) |
| Cc1ccccc1C(=O)NCc1cc(C(=O)N(C)C(C)c2ccccn2)no1 (stereo not given) | 73.8% (inactive) |
| CC(=O)c1cccc(OCc2cc(C(=O)N(C)C(C)c3ccccc3)no2)c1 (stereo not given) | 52.9% |
| CC(c1ccccn1)N(C)C(=O)c1cc(CNC(=O)c2ccccc2F)on1 (stereo not given) | 71.8% (inactive) |
| CC(=O)c1cccc(N(Cc2cc(C(=O)N(C)C(C)c3ccccn3)no2)C(=O)c2cccc(C)c2)c1 (stereo not given) | 65.5% (inactive) |
| CC(=O)c1cccc(N(Cc2cc(C(=O)N(C)C(C)c3ccccn3)no2)S(=O)(=O)c2ccccc2[N+](=O)[O-])c1 (stereo not given) | 60.6% (inactive) |
| CC(=O)c1cccc(OCc2cc(C(=O)N(C)C(C)c3ccncc3)no2)c1 (stereo not given) | 80.9% (inactive) |
| CC(=O)c1cccc(OCc2cc(C(=O)N(C)c3cccc4cccnc34)no2)c1 | 74.2% (inactive) |
| Cc1cccc(C(=O)NCc2cc(C(=O)N(C)C(C)c3ccccn3)no2)c1 (stereo not given) | 71.5% (inactive) |
| CC(c1ccccn1)N(C)C(=O)c1cc(CNS(C)(=O)=O)on1 (stereo not given) | 80.4% (inactive) |
| CC(c1ccccn1)N(C)C(=O)c1cc(COc2ccccc2F)on1 (stereo not given) | 83.7% (inactive) |
